The results in this text go back to patent US9597330B2, “Drugs for treating respiratory diseases” (DAIICHI SANKYO COMPANY, LIMITED, priority 2013, dated 2017).

The test has as its target hNav 1.7 (Homo sapiens (Human), UniProt Q15858). Description: Electrophysiological evaluation, automated patch clamp (IonWorks Quattro, Population Patch Clamp mode). Format: cell-based. Conditions: HEK293A cells stably expressing hNav 1.7/β1/β2; response to second depolarization pulse, pre-pulse potential set to V1/2; read-out: hNav1.7 IC50.

Sequence of hNav 1.7 (Q15858 whole entry): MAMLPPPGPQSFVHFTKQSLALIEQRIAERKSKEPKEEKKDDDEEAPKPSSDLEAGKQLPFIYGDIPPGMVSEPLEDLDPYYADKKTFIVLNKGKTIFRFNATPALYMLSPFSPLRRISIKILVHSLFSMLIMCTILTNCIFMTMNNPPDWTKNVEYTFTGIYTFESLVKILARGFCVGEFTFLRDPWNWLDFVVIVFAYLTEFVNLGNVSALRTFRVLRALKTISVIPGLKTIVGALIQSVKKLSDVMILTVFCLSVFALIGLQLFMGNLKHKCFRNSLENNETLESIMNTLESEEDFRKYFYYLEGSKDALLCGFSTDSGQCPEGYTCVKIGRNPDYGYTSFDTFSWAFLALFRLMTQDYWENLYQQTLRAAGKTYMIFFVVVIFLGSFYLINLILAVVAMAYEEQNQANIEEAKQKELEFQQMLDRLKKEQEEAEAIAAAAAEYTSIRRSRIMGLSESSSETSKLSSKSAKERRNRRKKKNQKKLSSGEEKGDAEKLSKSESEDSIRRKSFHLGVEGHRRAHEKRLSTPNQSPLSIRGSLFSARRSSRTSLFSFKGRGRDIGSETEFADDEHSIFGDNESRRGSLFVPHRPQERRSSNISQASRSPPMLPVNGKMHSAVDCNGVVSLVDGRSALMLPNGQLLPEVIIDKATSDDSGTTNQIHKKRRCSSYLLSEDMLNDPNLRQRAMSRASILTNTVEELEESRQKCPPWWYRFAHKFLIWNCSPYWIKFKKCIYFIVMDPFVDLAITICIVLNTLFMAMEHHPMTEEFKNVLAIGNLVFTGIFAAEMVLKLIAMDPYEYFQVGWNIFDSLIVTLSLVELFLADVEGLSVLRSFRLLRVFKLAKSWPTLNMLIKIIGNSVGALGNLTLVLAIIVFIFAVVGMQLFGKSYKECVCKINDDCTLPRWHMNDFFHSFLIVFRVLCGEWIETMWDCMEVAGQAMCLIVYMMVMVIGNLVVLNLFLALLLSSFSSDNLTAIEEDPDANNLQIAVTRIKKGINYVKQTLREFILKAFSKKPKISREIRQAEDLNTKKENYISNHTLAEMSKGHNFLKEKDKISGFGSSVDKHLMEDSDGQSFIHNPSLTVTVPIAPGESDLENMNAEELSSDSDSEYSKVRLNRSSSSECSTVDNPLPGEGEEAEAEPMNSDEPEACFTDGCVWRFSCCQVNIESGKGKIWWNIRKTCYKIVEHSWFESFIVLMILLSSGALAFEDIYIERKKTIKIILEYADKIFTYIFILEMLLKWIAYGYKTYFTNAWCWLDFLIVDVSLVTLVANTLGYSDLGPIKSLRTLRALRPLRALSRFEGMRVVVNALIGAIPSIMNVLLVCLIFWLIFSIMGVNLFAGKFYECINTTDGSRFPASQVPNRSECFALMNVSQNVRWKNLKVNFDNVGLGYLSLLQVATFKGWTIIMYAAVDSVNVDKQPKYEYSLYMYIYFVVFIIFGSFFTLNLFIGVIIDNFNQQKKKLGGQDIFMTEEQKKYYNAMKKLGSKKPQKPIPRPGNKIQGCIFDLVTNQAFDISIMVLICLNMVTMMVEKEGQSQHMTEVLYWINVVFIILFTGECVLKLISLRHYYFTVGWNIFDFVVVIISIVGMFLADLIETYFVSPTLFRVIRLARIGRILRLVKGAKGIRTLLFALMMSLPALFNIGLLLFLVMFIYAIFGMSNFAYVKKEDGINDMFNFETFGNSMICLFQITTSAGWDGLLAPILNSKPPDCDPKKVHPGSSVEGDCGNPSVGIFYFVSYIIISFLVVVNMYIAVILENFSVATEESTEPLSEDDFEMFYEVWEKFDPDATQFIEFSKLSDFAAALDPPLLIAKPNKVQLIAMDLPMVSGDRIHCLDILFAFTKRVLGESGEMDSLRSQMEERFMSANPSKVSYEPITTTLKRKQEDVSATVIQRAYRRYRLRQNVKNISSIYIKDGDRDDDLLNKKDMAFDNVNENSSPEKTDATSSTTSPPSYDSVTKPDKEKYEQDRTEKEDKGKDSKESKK
Sequence of hNav 1.7 (Q07699 19-218 partner): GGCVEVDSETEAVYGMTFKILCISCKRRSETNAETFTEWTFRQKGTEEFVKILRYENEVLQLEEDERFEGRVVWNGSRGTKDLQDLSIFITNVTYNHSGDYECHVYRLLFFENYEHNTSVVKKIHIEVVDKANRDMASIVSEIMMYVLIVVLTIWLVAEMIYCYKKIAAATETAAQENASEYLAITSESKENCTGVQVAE
Sequence of hNav 1.7 (O60939 30-215 partner): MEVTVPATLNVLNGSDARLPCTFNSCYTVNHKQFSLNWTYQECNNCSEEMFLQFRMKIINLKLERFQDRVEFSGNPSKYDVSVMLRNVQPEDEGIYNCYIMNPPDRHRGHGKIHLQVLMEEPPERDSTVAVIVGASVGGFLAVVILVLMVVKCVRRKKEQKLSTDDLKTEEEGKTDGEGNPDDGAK

Take `Cn1nccc1[C@H]1CCCCC[C@@H]1Oc1cc(F)c(S(=O)(=O)Nc2ccncn2)cc1Cl` (relative stereo) [Compound 19, 5-Chloro-2-fluoro-4-{[(1S*,2R*)-2-(1-methyl-1H-pyrazol-5-yl)cycloheptyl]oxy}-N-(pyrimidin-4-yl)benzenesulfonamide]: the IC50 (in general, the concentration that inhibits the measured activity by half) worked out at 37 nM.

Turning to `Cn1nccc1[C@H]1CCCCC[C@@H]1Oc1cc(F)c(S(=O)(=O)Nc2ccncn2)cc1F` (relative stereo) [Compound 9, 2,5-Difluoro-4-{[(1S*,2R*)-2-(1-methyl-1H-pyrazol-5-yl)cycloheptyl]oxy}-N-(pyrimidin-4-yl)benzenesulfonamide], the IC50 worked out at 91 nM.
